The structures appear in SMILES notation.

The first data set relates to HEY ovarian cancer cells. Description: MTT cytotoxicity assay, HEY. In kind it is cell-based, human. Particulars: HEY ovarian cancer cells; read-out: 50% Cytotoxic concentration (IC50). The method, then:
The sensitivity of a panel of seven human cancer cell lines to SC144 was assessed by MTT-assay. […] The sensitivity towards SC144 was time- and dose-dependent.
Cytotoxicity was assessed by a 3-(4,5-dimethylthiazol-2-yl)-2,5-diphenyltetrazolium bromide assay as previously described (Carmichael et al. (1987) Cancer Res. 47:936-42). Briefly, cells were seeded in 96-well microtiter plates (PC3 and DU145 at 5,000 cells/well and LNCaP at 10,000 cells/well; breast and ovarian cells at 4,000 cells/well) and allowed to attach. Cells were subsequently treated with a continuous exposure to the corresponding drug for 72 hours. A 3-(4,5-dimethylthiazol-2-yl)-2,5-diphenyltetrazolium bromide solution (at a final concentration of 0.5 mg/mL) was added to each well and cells were incubated for 4 hours at 37° C. After removal of the medium, DMSO was added and the absorbance was read at 570 nm. All assays were done in triplicate. The IC50 was then determined for each drug from a plot of log(drug concentration) versus percentage of cell kill.
In general terms: Tetrazolium assays rely on reduction of a dye to a coloured formazan, in cell work by metabolically active cells.
`CCCn1c(=O)c(C(=O)NNC(=O)CC(=O)OCC)c(O)c2ccccc21` [SC202]: the IC50 worked out at 1 µM. Same read-out and setting: as for `COCc1c(C(=O)NNC(=O)c2ccccc2F)nnn1-c1nonc1N` [SC204], the figure is 1 µM; as for `CCCn1c(=O)c(C(=O)NNC(=O)c2ccc(C)cc2)c(O)c2ccccc21` [SC206], 1 µM; as for `O=C(COc1ccc2ccccc2c1)NNC(=O)c1cc2ccccc2cc1O` [SC210], 1 µM. Take `CSc1nc(NNC(=O)c2ccco2)c2c3c(sc2n1)COC(C)(C)C3` [SC212]: the IC50 was 1 µM. Still for that read-out and setting: the result for `CCn1c(=O)c(C(=O)NNC(=O)c2ccccc2[N+](=O)[O-])c(O)c2ccccc21` [SC214] reads 1 µM; that for `Cc1ccc(-n2c(SCC(=O)NNC(=O)c3ccccc3O)nnc2-c2ccccc2O)cc1` [SC245], 1 µM. On the same count and under the same terms, as for `O=C(CSc1nnc(-c2ccccc2O)n1Cc1ccccc1)NNC(=O)c1ccccc1O` [SC246], the figure is 1 µM.

Still in this data set, the particulars now being: Homo sapiens, read-out: 50% Cytotoxic concentration (IC50).
For `Cc1cccc(C(O)(C(=O)NNC(=O)/C(O)=C/C(=O)c2ccccc2)c2cccc(C)c2)c1` [SC230], the IC50 was determined as 3 µM.

Still in this data set, the particulars now being: Homo sapiens; HEY ovarian cancer cells; read-out: 50% Cytotoxic concentration (IC50).
With `O=C(CSc1nc2ccccc2c(=O)n1CC1CCCO1)NNC(=O)c1ccccc1O` (centres unmarked), the IC50 came to 2 µM.

`CCCn1c(=O)c(C(=O)NNC(=O)c2ccccc2)c(O)c2ccccc21` [SC201]: the IC50 was 2 µM. Still for that read-out and setting: the result for `CCn1c(=O)c(C(=O)NNC(=O)Cc2ccccc2)c(O)c2ccccc21` [SC203] reads 6 µM; that for `CCn1c(=O)c(C(=O)NNC(=O)c2ccc(C)cc2)c(O)c2ccccc21` [SC205], 6 µM. Consider `CCn1c(=O)c(C(=O)NNC(=O)c2cccc(C)c2)c(O)c2ccccc21` [SC207], for which the IC50 is 6 µM. Same read-out and setting: the result for `O=C(CSc1nnc(-c2ccccc2O)o1)NNC(=O)Cc1ccccc1` [SC208] reads 4 µM; that for `CC1CCN(S(=O)(=O)c2ccc(C(=O)NNC(=O)C3CC3)cc2)CC1` [SC209], 8 µM.

Take `CCc1cc2ccccc2nc1SCC(=O)NNC(=O)c1ccccc1` [SC211]: the IC50 came out at 10 µM.

For `Cc1cccc(C(=O)NNC(=O)CSc2nc3ccccc3cc2C)c1` [SC213], the IC50 worked out at 12 µM. As to `Cc1cc(C)cc(OCC(=O)NNC(=O)c2cc3ccccc3oc2=O)c1` [SC215], the IC50 stood at 12 µM. Same read-out and setting: as for `CCn1c(=O)c(C(=O)NNC(=O)c2ccc([N+](=O)[O-])cc2)c(O)c2ccccc21` [SC216], the figure is 5 µM. The same measure, in the same setting: the result for `C=C(C)CNC(=S)NNC(=O)CCn1c2ccccc2c2ccccc21` [SC217] reads 4 µM; that for `CCn1c(=O)c(C(=O)NNC(=O)c2cccc([N+](=O)[O-])c2)c(O)c2ccccc21` [SC218], 4 µM; that for `O=C(NNC(=O)c1c(O)c2ccccc2[nH]c1=O)c1ccccc1[N+](=O)[O-]` [SC219], 2 µM. Still for that read-out and setting: as for `CC1=C(C)C2c3nnc(SCC(=O)NNC(=O)c4ccco4)n3C=NC2S1` (centres unmarked) [SC220], the figure is 4 µM; as for `O=C(NNC(=O)c1c(O)c2ccccc2[nH]c1=O)c1cccc([N+](=O)[O-])c1` [SC221], 4 µM.

With `O=C(CSc1nc2ccccc2cc1Cc1ccccc1)NNC(=O)c1ccco1` [SC222], the IC50 stood at 8 µM. Same read-out and setting: as for `COc1ccc(C(=O)NNC(=O)c2cc3ccccc3oc2=O)cc1OC` [SC223], the figure is 4 µM; as for `O=C(CSc1nc(C2CC2)nc2sc3c(c12)CCCC3)NNC(=O)c1ccco1` [SC224], 4 µM.

As to `CCn1c(=O)c(C(=O)NNC(=O)c2ccccc2F)c(O)c2ccccc21` [SC225], the IC50 was 2 µM. On the same count and under the same terms, as for `COc1ccc(C(=O)NNC(=O)CSc2ncnc3sc4c(c23)CCCC4)cc1` [SC226], the figure is 5 µM.

As for `CCc1cc2ccc(C)cc2nc1SCC(=O)NNC(=O)c1ccco1` [SC227], the IC50 came out at 6 µM. On the same count and under the same terms, the result for `CCC(=O)NNc1nc2c(c(=O)n1Cc1ccccc1)C1(CCCC1)Cc1ccccc1-2` [SC228] reads 6 µM.

Regarding `CC1(C)Cc2c(sc3nc(NNC(=O)c4ccccc4)[nH]c(=O)c23)CO1` [SC229], the IC50 stood at 8 µM.

With `CCCCCCCC(=O)NNC(=O)c1c(O)c2ccccc2n(CC)c1=O` [SC231], the IC50 came to 3 µM. As to `CC1=C(C)C2c3nnc(SCC(=O)NNC(=O)c4ccco4)n3C(C(C)C)=NC2S1` (centres unmarked) [SC232], the IC50 was determined as 6 µM. Still for that read-out and setting: as for `CCCCCCCCC(=O)NNC(=O)c1c(O)c2ccccc2n(C)c1=O` [SC233], the figure is 5 µM; as for `Cc1cccc(C(=O)NNC(=O)CSc2nc(-c3ccccc3)nc3ccc(F)cc23)c1` [SC234], 8 µM; as for `CCCCCCC(=O)NNC(=O)c1c(O)c2ccccc2n(CCC)c1=O` [SC235], 7 µM.

Turning to `CCCCCCCCCC(=O)NNC(=O)c1c(O)c2ccccc2[nH]c1=O` [SC237], the IC50 is 7 µM. The same measure, in the same setting: the result for `O=C(NNC(=O)c1cc2ccccc2oc1=O)c1ccc(S(=O)(=O)N2CCCCC2)cc1` [SC238] reads 3 µM; that for `O=C(NNC(=O)c1cc2ccccc2oc1=O)c1ccc(S(=O)(=O)N2CCOCC2)cc1` [SC239], 3 µM. Still for that read-out and setting: the result for `Cc1ccc(-n2c(SCC(=O)NNC(=O)c3ccccc3O)nnc2-c2ccccc2)cc1` [SC240] reads 5 µM; that for `O=C(CSc1nnc(-c2ccccc2)n1Cc1ccccc1)NNC(=O)c1ccccc1O` [SC241], 5 µM.

As to `COc1ccc2nc(C)cc(SCC(=O)NNC(=O)COc3cccc4ccccc34)c2c1` [SC242], the IC50 came out at 5 µM. Same read-out and setting: the result for `Cc1ccc(C(=O)n2nnc3c(NNC(=O)COc4ccc(F)cc4)nc(C4CC4)nc32)cc1` [SC243] reads 6 µM; that for `O=C(CSC1=NNC2C3=C(N=C(C4CC4)N12)S1=C(CCCC1)C3)NNC(=O)C1C=CC=CO1` (centres unmarked) [SC244], 15 µM. Same read-out and setting: as for `O=C(CSc1nnc2c3c4c(sc3ncn12)CCCC4)NNC(=O)c1ccco1` [SC247], the figure is 14 µM; as for `O=C(CSc1nnc(Cc2ccccc2)n1-c1cccc(Cl)c1)NNC(=O)c1ccccc1O` [SC248], 2 µM.

In the case of `Cc1ccc(-n2c(SCC(=O)NNC(=O)Cc3ccccc3)nc3sc4c(c3c2=O)CCCC4)cc1` [SC249], the IC50 amounted to 2 µM. On the same count and under the same terms, the result for `Cc1ccc(C(=O)NNC(=O)CSc2nnc3c4c5c(sc4nc(C4CC4)n23)CCCC5)cc1` [SC250] reads 2 µM; that for `O=C(NNC(=O)c1cccs1)c1ccco1` [SC251], 15 µM. Still for that read-out and setting: the result for `O=C(NNC(=O)c1cccs1)c1ccccn1` [SC252] reads 16 µM; that for `CCn1c(NNC=O)nc2c1c(=O)[nH]c(=O)n2C` [SC253], 12 µM.

For the molecule `Cc1occc1C(=O)NNC(=O)c1ccccc1F` [SC254], the IC50 was found to be 17 µM. Same read-out and setting: the result for `O=C(NNC(=O)c1ccccc1O)c1cccs1` [SC255] reads 14 µM. In the case of `CCC(=O)NNC(=O)c1c(O)c2ccccc2[nH]c1=O` [SC256], the IC50 came to 3 µM. Take `O=C(NNC(=O)c1cccs1)c1ccc(O)c(O)c1` [SC257]: the IC50 turned out to be 2 µM.

For the molecule `O=C(/C=C/NNC(=O)c1ccccc1O)c1ccccc1` [SC258], the IC50 was 2 µM. On the same count and under the same terms, the result for `O=C(O)CCCC(=O)NNC(=O)c1ccccc1Cl` [SC259] reads 18 µM. Still for that read-out and setting: as for `COc1ccccc1C(=O)NNC(=O)c1ccccc1O` [SC260], the figure is 10 µM; as for `O=C(NNC(=O)c1cccc2ccccc12)c1cccs1` [SC261], 11 µM; as for `O=C(NNC(=O)c1cccs1)c1ccc2ccccc2c1` [SC262], 11 µM. Still for that read-out and setting: the result for `O=C(O)/C=C/C(=O)NNC(=O)c1cc(-c2ccccc2)[nH]n1` [SC263] reads 5 µM; that for `O=C(NNC1=CS(=O)(=O)c2ccccc21)c1ccccc1` [SC264], 5 µM. As to `O=C(NNC1=NS(=O)(=O)c2ccccc21)c1ccncc1` [SC265], the IC50 stood at 5 µM. Still for that read-out and setting: as for `O=C(NNC(=O)c1cc2ccccc2oc1=O)c1ccncc1` [SC266], the figure is 7 µM; as for `O=C(NNC(=O)c1c(O)c2ccccc2[nH]c1=O)c1ccccc1` [SC268], 10 µM.

As for `O=C(CCc1ccccc1)NNC(=O)c1ccc2ccccc2c1O` [SC270], the IC50 was 5 µM.

`O=C(COc1ccc2ccccc2c1)NNC(=O)c1ccccc1O` [SC271]: the IC50 worked out at 6 µM. Same read-out and setting: the result for `COc1cccc(C(=O)NNC(=O)c2ccc3ccccc3c2O)c1` [SC272] reads 7 µM; that for `COc1ccccc1C(=O)NNC(=O)c1ccc2ccccc2c1O` [SC273], 11 µM; that for `COc1ccccc1C(=O)NNC(=O)c1cc2ccccc2cc1O` [SC274], 11 µM.

`COc1ccc(C(=O)NNC(=O)c2ccc3ccccc3c2O)cc1` [SC275]: the IC50 was found to be 12 µM. The same measure, in the same setting: as for `COc1ccc(C(=O)NNC(=O)c2cc3ccccc3cc2O)cc1` [SC276], the figure is 13 µM; as for `O=C(Cc1ccccc1)NNC(=O)c1c(O)c2ccccc2[nH]c1=O` [SC277], 14 µM. The same measure, in the same setting: the result for `Cc1ccc(C(=O)NNC(=O)c2c(O)c3ccccc3[nH]c2=O)cc1` [SC278] reads 13 µM; that for `O=C(NNC(=O)c1c(O)c2ccccc2[nH]c1=O)c1ccccc1F` [SC279], 6 µM; that for `O=C(CCl)NNc1nc(-c2ccccc2)c2cc(Cl)ccc2n1` [SC280], 6 µM.

A further data set deals with MDA-MB-435 cells. Briefly: MTT assay, continuous drug exposure for 48 hours (Table 3). Type of data set: cell-based, human.
Settings: not given
Broadly, the CC50 is the concentration at which the toxic effect on the cells reaches its halfway point. Read a high CC50 as lower toxicity to the cells. Molecule `N.N.[Cl][Pt][Cl]` [Cisplatin] yielded a CC50 of 39 ± 1.41 µM and a CC80 of 71 ± 1.4 µM.

Source of the values: patent US20110034472A1, “Novel Compounds for Treatment of Cancer and Disorders Associated With Angiogenesis Function” (UNIVERSITY OF SOUTHERN CALIFORNIA, priority 2004, published 2011).
